ChEMBL document CHEMBL5528008, “Design and synthesis of the first PARP-1 and proteasome dual inhibitors to treat breast cancer” (Eur J Med Chem, 2024)
Calls of active or inactive are those of the source.

Experiments:
BT-549 [1] = assay: Cytotoxicity against human BT-549 cells assessed as inhibition of cell growth incubated for 72 hrs by MTT assay; format: functional, cell-based; details: BT-549, 72 h
MCF7 [2] = assay: Cytotoxicity against human MCF7 cells assessed as inhibition of cell growth incubated for 72 hrs by MTT assay; format: functional, cell-based; details: MCF7, 72 h
BT-549 [3] = assay: Induction of DNA damage in human BT-549 cells assessed as upregulation of gamma-H2AX level at 1 uM incubated for 48 hrs by immunoblotting analysis; format: functional, cell-based
MDA-MB-231 [4] = assay: Cytotoxicity against human MDA-MB-231 cells assessed as inhibition of cell growth incubated for 72 hrs by MTT assay; format: functional, cell-based; details: MDA-MB-231, 72 h
BT-549 [5] = assay: Synergistic antiproliferative activity against human BT-549 cells assessed as synergistic score in presence of Ixazomib; format: functional
BT-549 [6] = assay: Induction of DNA damage in human BT-549 cells assessed as upregulation of gamma-H2AX level at 0.5 uM incubated for 48 hrs by immunoblotting analysis; format: functional, cell-based
BT-549 [7] = assay: Inhibition of colony formation in human BT-549 cells assessed as reduction in colony number incubated for 14 days by crystal violet staining based analysis; format: functional, cell-based; details: time 14.0 day
BT-549 [8] = assay: Induction of DNA damage in human BT-549 cells assessed as decrease in ubiquitin localization in nucleus at 0.125 uM incubated for 48 hrs by fluorescence confocal microscopic analysis; format: functional, cell-based
[9] = target: T1, Poly [ADP-ribose] polymerase 1 (Homo sapiens, UniProt P09874); assay: Inhibition of PARP-1 in human BT-549 cells assessed as downregulation of FANCD2 mRNA expression incubated for 48 hrs by RT-qPCR analysis; format: cell-based
T1 sequence (P09874 whole entry): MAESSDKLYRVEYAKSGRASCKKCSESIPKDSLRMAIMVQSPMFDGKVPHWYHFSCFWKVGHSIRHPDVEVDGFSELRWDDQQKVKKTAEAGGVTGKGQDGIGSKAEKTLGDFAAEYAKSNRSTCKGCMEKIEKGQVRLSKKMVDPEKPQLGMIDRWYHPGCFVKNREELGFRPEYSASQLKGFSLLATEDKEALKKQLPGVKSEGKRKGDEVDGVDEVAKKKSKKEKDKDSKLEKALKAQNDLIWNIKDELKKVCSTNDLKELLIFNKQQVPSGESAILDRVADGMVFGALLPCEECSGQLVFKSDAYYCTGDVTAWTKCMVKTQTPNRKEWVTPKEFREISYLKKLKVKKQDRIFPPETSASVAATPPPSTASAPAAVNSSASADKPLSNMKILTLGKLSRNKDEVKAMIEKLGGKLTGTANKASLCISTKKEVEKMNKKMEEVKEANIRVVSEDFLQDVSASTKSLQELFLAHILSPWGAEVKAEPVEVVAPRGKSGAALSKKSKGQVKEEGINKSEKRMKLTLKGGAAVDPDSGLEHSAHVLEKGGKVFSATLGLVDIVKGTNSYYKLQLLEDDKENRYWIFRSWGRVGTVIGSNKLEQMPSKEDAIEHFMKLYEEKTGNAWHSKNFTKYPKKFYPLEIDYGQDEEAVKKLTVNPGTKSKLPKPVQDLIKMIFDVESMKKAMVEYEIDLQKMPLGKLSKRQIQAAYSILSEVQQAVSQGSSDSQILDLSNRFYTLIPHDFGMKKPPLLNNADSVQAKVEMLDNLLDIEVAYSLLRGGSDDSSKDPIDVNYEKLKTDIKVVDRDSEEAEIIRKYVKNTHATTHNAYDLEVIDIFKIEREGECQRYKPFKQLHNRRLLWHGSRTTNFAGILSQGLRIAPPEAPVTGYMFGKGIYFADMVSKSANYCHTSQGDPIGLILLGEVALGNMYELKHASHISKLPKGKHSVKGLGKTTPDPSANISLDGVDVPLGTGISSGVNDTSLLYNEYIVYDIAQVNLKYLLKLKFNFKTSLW

A549 = assay: Antiproliferative activity against human A549 cells assessed as fold change in inhibition of cell growth at 0.3 to 1.2 uM incubated for 72 hrs by MTT assay; format: functional; details: dose 0.3-1.2 µM
BT-549 [10] = assay: Induction in cell cycle arrest in human BT-549 cells assessed as downregulation of CDK1 expression at 0.5 uM incubated for 48 hrs by Western blotting analysis; format: functional, cell-based
[11] = target: T1, Poly [ADP-ribose] polymerase 1; assay: Inhibition of PARP-1 in human BT-549 cells assessed as downregulation of RAD51 expression at 0.5 uM incubated for 48 hrs by immunoblotting analysis; format: cell-based
NCI-H1299 = assay: Antiproliferative activity against human NCI-H1299 cells assessed as fold change in inhibition of cell growth at 0.3 to 1.2 uM incubated for 72 hrs by MTT assay; format: functional; details: dose 0.3-1.2 µM
SK-OV-3 = assay: Antiproliferative activity against human SK-OV-3 cells assessed as fold change in inhibition of cell growth at 0.3 to 1.2 uM incubated for 72 hrs by MTT assay; format: functional; details: dose 0.3-1.2 µM
MDA-MB-231 [12] = assay: Antiproliferative activity against human MDA-MB-231 cells assessed as fold change in inhibition of cell growth at 0.3 to 1.2 uM incubated for 72 hrs by MTT assay; format: functional; details: dose 0.3-1.2 µM
[13] = target: T1, Poly [ADP-ribose] polymerase 1; assay: Inhibition of PARP-1 in human BT-549 cells assessed as downregulation of BRCA1 expression at 0.05 uM incubated for 48 hrs by immunoblotting analysis; format: cell-based
[14] = target: T1, Poly [ADP-ribose] polymerase 1; assay: Inhibition of PARP-1 in human BT-549 cells assessed as downregulation of BRCA1 mRNA expression incubated for 48 hrs by RT-qPCR analysis; format: cell-based
[15] = target: T1, Poly [ADP-ribose] polymerase 1; assay: Inhibition of PARP-1 in human BT-549 cells assessed as downregulation of P-ATM expression at 0.5 uM incubated for 48 hrs by immunoblotting analysis; format: cell-based
BT-549 [16] = assay: Induction in cell cycle arrest in human BT-549 cells assessed as downregulation of Cyclin A2 expression at 0.5 uM incubated for 48 hrs by Western blotting analysis; format: functional, cell-based
[17] = Antiproliferative activity against human COV362 cells assessed as fold change in inhibition of cell growth at 0.3 to 1.2 uM incubated for 72 hrs by MTT assay; format: functional; details: dose 0.3-1.2 µM
[18] = target: T1, Poly [ADP-ribose] polymerase 1; assay: Inhibition of PARP-1 (unknown origin) using Femto-ECL as substrate preincubated for 2.7 hrs followed by substrate addition by chemiluminescence assay
[19] = target: T1, Poly [ADP-ribose] polymerase 1; assay: Inhibition of PARP-1 in human BT-549 cells assessed as downregulation of RAD51 mRNA expression incubated for 48 hrs by RT-qPCR analysis; format: cell-based
BT-549 [20] = assay: Induction of DNA damage in human BT-549 cells assessed as upregulation of gamma-H2AX level at 0.05 uM incubated for 48 hrs by immunoblotting analysis; format: functional, cell-based
BT-549 [21] = assay: Induction in cell cycle arrest in human BT-549 cells assessed as downregulation of CDK1 expression at 0.05 uM incubated for 48 hrs by Western blotting analysis; format: functional, cell-based
BT-549 [22] = assay: Induction of DNA damage in human BT-549 cells assessed as increase in polyubiquitination at 0.125 uM incubated for 48 hrs by fluorescence confocal microscopic analysis; format: functional, cell-based
[23] = target: T1, Poly [ADP-ribose] polymerase 1; assay: Inhibition of PARP-1 in human BT-549 cells assessed as downregulation of BRCA1 expression at 0.5 uM incubated for 48 hrs by immunoblotting analysis; format: cell-based
BT-549 [24] = assay: Induction of apoptosis in human BT-549 cells assessed as increase in early apoptotic cells incubated for 48 hrs by Annexin V-FITC/PI staining based flow cytometric analysis; format: functional, cell-based
ES-2 = assay: Antiproliferative activity against human ES2 cells assessed as fold change in inhibition of cell growth at 0.3 to 1.2 uM incubated for 72 hrs by MTT assay; format: functional; details: dose 0.3-1.2 µM
[25] = target: T1, Poly [ADP-ribose] polymerase 1; assay: Inhibition of PARP-1 in human BT-549 cells assessed as downregulation of RAD51 expression at 0.05 uM incubated for 48 hrs by immunoblotting analysis; format: cell-based
BT-549 [26] = assay: Induction in cell cycle arrest in human BT-549 cells assessed as upregulation of p21 expression at 0.05 uM incubated for 48 hrs by Western blotting analysis; format: functional, cell-based
BT-549 [27] = assay: Induction in cell cycle arrest in human BT-549 cells assessed as downregulation of Cyclin A2 expression at 0.05 uM incubated for 48 hrs by Western blotting analysis; format: functional, cell-based
BT-549 [28] = assay: Induction of DNA damage in human BT-549 cells assessed as increase in gamma-H2AX localization in nucleus at 0.125 uM incubated for 48 hrs by fluorescence confocal microscopic analysis; format: functional, cell-based
HEY = assay: Antiproliferative activity against human HEY cells assessed as fold change in inhibition of cell growth at 0.3 to 1.2 uM incubated for 72 hrs by MTT assay; format: functional; details: dose 0.3-1.2 µM
[29] = target: T1, Poly [ADP-ribose] polymerase 1; assay: Inhibition of PARP-1 in human BT-549 cells assessed as downregulation of BRCA2 mRNA expression incubated for 48 hrs by RT-qPCR analysis; format: cell-based
[30] = target: T1, Poly [ADP-ribose] polymerase 1; assay: Inhibition of PARP-1 in human BT-549 cells assessed as downregulation of P-ATM expression at 0.05 uM incubated for 48 hrs by immunoblotting analysis; format: cell-based
BT-549 [31] = assay: Induction of DNA damage in human BT-549 cells assessed as decrease in BRCA1 localization in nucleus at 0.125 uM incubated for 48 hrs by fluorescence confocal microscopic analysis; format: functional, cell-based
PC-3 = assay: Antiproliferative activity against human PC-3 cells assessed as fold change in inhibition of cell growth at 0.3 to 1.2 uM incubated for 72 hrs by MTT assay; format: functional; details: dose 0.3-1.2 µM
BT-549 [32] = assay: Antiproliferative activity against human BT-549 cells assessed as fold change in inhibition of cell growth at 0.3 to 1.2 uM incubated for 72 hrs by MTT assay; format: functional; details: dose 0.3-1.2 µM
BT-549 [33] = assay: Induction of apoptosis in human BT-549 cells assessed as upregulation of cleaved caspase-3 expression incubated for 48 hrs by Western blotting analysis; format: functional, cell-based
BT-549 [34] = assay: Inhibition of colony formation in human BT-549 cells assessed as reduction in colony size incubated for 14 days by crystal violet staining based analysis; format: functional, cell-based; details: time 14.0 day
BT-549 [35] = assay: Induction in cell cycle arrest in human BT-549 cells assessed as upregulation of p21 expression at 0.5 uM incubated for 48 hrs by Western blotting analysis; format: functional, cell-based
MCF7 [36] = assay: Antiproliferative activity against human MCF7 cells assessed as fold change in inhibition of cell growth at 0.3 to 1.2 uM incubated for 72 hrs by MTT assay; format: functional; details: dose 0.3-1.2 µM
20S proteasome = assay: Inhibition of 20S proteasome (unknown origin) using […] as substrate; format: protein-complex assay, Homo sapiens
BT-549 [37] = assay: Induction of DNA damage in human BT-549 cells assessed as decrease in polyubiquitination in nucleus at 0.125 uM incubated for 48 hrs by fluorescence confocal microscopic analysis; format: functional, cell-based
BT-549 [38] = assay: Induction of apoptosis in human BT-549 cells assessed as increase in late apoptotic cells incubated for 48 hrs by Annexin V-FITC/PI staining based flow cytometric analysis; format: functional, cell-based
BT-549 [39] = assay: Induction of apoptosis in human BT-549 cells assessed as upregulation of cleaved PARP expression incubated for 48 hrs by Western blotting analysis; format: functional, cell-based
BT-549 [40] = assay: Synergistic antiproliferative activity against human BT-549 cells assessed as synergistic score in presence of Olaparib; format: functional

O=C(c1cc(Cc2n[nH]c(=O)c3ccccc23)ccc1F)N1CCN(C(=O)C2CC2)CC1 [OLAPARIB]
12.407: Activity (BT-549 [5])
active: Activity (BT-549 [3]) | Activity (BT-549 [6])
> 30 µM: IC50 (MDA-MB-231 [4])
10.6 µM: IC50 (MCF7 [2])
6.61 µM: IC50 (BT-549 [1])

CC(C)C[C@H](NC(=O)[C@H](CC(C)C)NC(=O)c1cc(Cc2n[nH]c(=O)c3ccccc23)ccc1F)B1O[C@@H]2C[C@@H]3C[C@@H](C3(C)C)[C@]2(C)O1
1: fold change (FC) (A549) | fold change (FC) (NCI-H1299) | fold change (FC) (SK-OV-3) | fold change (FC) [17] | fold change (FC) (ES-2) | fold change (FC) (HEY) | fold change (FC) (PC-3)
0.0312 µM: IC50 (MDA-MB-231 [4])
0.137 µM: IC50 [18]
0.0178 µM: IC50 (BT-549 [1])
0.0495 µM: IC50 (MCF7 [2])
active: inhibition (BT-549 [7]) Dose-Dependent Effect | Activity (BT-549 [8]) | inhibition [9] Dose-Dependent Effect | Activity (BT-549 [10]) | inhibition [11] | inhibition [13] | inhibition [14] Dose-Dependent Effect | inhibition [15] | Activity (BT-549 [16]) | inhibition [19] Dose-Dependent Effect | Activity (BT-549 [20]) | Activity (BT-549 [21]) | Activity (BT-549 [22]) | inhibition [23] | Activity (BT-549 [24]) Dose-Dependent Effect | inhibition [25] | Activity (BT-549 [26]) | Activity (BT-549 [27]) | Activity (BT-549 [28]) | inhibition [29] Dose-Dependent Effect | inhibition [30] | Activity (BT-549 [31]) | Activity (BT-549 [6]) | Activity (BT-549 [33]) Dose-Dependent Effect | inhibition (BT-549 [34]) Dose-Dependent Effect | Activity (BT-549 [35]) | Activity (BT-549 [37]) | Activity (BT-549 [38]) Dose-Dependent Effect | Activity (BT-549 [39]) Dose-Dependent Effect
10: fold change (FC) (MDA-MB-231 [12]) | fold change (FC) (BT-549 [32]) | fold change (FC) (MCF7 [36])
0.0609 µM: IC50 (20S proteasome)

CC(C)C[C@H](NC(=O)CNC(=O)c1cc(Cl)ccc1Cl)B(O)O [IXAZOMIB]
12.191: Activity (BT-549 [40])
inactive: Activity (BT-549 [28])
0.135 µM: IC50 (MCF7 [2])
0.0426 µM: IC50 (MDA-MB-231 [4])
0.227 µM: IC50 (BT-549 [1])
